Data published in US9630922B2, “3-spiro-7-hydroxamic acid tetralins as HDAC inhibitors” (Forma Therapeutics, Inc., priority 2015, dated 2017).

Target: T1, HDAC6 (Homo sapiens, UniProt Q9UBN7)
T1 construct: Full length human recombinant HDAC6 protein was expressed in baculoviral system; made in house; host or cells: baculoviral system
T1 sequence (Q9UBN7 1-1215): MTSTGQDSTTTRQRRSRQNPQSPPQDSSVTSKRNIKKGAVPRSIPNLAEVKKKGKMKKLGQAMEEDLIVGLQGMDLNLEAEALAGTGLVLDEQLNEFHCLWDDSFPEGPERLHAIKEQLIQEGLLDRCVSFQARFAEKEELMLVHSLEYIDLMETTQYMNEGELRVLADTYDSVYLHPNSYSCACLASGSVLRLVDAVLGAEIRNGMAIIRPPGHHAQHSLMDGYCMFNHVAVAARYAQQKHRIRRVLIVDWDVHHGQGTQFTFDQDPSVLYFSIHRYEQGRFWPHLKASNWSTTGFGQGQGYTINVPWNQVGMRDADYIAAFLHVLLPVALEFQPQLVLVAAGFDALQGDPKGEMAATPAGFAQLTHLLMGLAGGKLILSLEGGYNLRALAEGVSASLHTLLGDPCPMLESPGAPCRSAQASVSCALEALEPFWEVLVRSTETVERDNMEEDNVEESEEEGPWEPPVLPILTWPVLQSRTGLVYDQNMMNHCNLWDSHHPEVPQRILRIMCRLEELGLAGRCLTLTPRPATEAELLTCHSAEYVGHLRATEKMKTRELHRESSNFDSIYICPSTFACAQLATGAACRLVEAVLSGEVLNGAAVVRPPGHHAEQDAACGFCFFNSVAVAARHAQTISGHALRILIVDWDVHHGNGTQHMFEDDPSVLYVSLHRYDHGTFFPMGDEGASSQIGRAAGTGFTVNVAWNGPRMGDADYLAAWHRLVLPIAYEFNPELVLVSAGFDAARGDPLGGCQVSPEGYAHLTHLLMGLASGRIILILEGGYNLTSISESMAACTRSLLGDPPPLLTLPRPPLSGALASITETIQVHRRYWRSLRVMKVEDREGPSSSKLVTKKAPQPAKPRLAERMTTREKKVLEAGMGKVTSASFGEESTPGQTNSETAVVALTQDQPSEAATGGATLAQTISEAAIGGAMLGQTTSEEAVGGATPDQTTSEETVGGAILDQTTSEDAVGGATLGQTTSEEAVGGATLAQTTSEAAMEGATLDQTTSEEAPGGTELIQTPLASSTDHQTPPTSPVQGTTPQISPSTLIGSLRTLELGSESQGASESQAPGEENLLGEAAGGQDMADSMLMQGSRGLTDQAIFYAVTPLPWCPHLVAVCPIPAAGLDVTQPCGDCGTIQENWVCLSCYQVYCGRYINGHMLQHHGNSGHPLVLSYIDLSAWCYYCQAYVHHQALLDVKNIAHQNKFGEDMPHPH
Test: In vitro Histone Deacetylase Assay (enzymatic HDAC6 electrophoretic mobility shift assay)
Format: biochemical
Details: full length human recombinant HDAC6, 1 nM enzyme, 2 μM peptide substrate RHKK(Ac)-NH2, 25° C.; read-out: HDAC6 activity range
Method in brief: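 Deacetylation was read by microfluidic mobility shift as product/(substrate+product) peak ratio and normalised to 0% and 100% inhibition controls. Reactions used 1 nM baculovirus-expressed full-length human HDAC6 and 2 μM labelled RHKK(Ac)-NH2 in pH 7.5 HEPES buffer with 1% DMSO at 25 °C. IC50 was from 4-parameter fits of 12 concentrations.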

Row | IC50 [nM] | Structure (SMILES)
1 | ≤ 100 | CC(C)CN1CC[C@]2(CCc3cc(C(=O)NO)ccc3C2)C1=O [Compound I-159, (R)-N-hydroxy-1′-isobutyl-2′-oxo-3,4-dihydro-1H-spiro[naphthalene-2,3′-pyrrolidine]-6-carboxamide]
2 | 100 to 500 | CC(C)CN1CC[C@@]2(CCc3cc(C(=O)NO)ccc3C2)C1=O [Compound I-160, (S)-N-hydroxy-1′-isobutyl-2′-oxo-3,4-dihydro-1H-spiro[naphthalene-2,3′-pyrrolidine]-6-carboxamide]
3 | ≤ 100 | CCN1CC[C@]2(CCc3cc(C(=O)NO)ccc3C2)C1=O [Compound I-161, (R)-1′-ethyl-N-hydroxy-2′-oxo-3,4-dihydro-1H-spiro[naphthalene-2,3′-pyrrolidine]-6-carboxamide]
4 | ≤ 100 | CCN1CC[C@@]2(CCc3cc(C(=O)NO)ccc3C2)C1=O [Compound I-162, (S)-1′-ethyl-N-hydroxy-2′-oxo-3,4-dihydro-H-spiro[naphthalene-2,3′-pyrrolidine]-6-carboxamide]
5 | ≤ 100 | O=C(NO)c1ccc2c(c1)CC[C@]1(CCN(C3CCCC3)C1=O)C2 [Compound I-163, (R)-1′-cyclopentyl-N-hydroxy-2′-oxo-3,4-dihydro-1H-spiro[naphthalene-2,3′-pyrrolidine]-6-carboxamide]
6 | 100 to 500 | O=C(NO)c1ccc2c(c1)CC[C@@]1(CCN(C3CCCC3)C1=O)C2 [Compound I-164, (S)-1′-cyclopentyl-N-hydroxy-2′-oxo-3,4-dihydro-1H-spiro[naphthalene-2,3′-pyrrolidine]-6-carboxamide]
7 | ≤ 100 | O=C(NO)c1ccc2c(c1)CC[C@]1(CCN(CC(F)(F)F)C1=O)C2 [Compound I-165, (R)-N-hydroxy-2′-oxo-1′-(2,2,2-trifluoroethyl)-3,4-dihydro-1H-spiro[naphthalene-2,3′-pyrrolidine]-6-carboxamide]
8 | 100 to 500 | O=C(NO)c1ccc2c(c1)CC[C@@]1(CCN(CC(F)(F)F)C1=O)C2 [Compound I-166, (S)-N-hydroxy-2′-oxo-1′-(2,2,2-trifluoroethyl)-3,4-dihydro-1H-spiro[naphthalene-2,3′-pyrrolidine]-6-carboxamide]
9 | ≤ 100 | O=C(NO)c1ccc2c(c1)CC[C@]1(CCN(c3cc(F)ccc3F)C1=O)C2 [Compound I-167, (R)-1′-(2,5-difluorophenyl)-N-hydroxy-2′-oxo-3,4-dihydro-1H-spiro[naphthalene-2,3'-pyrrolidine]-6-carboxamide]
10 | ≤ 100 | Cn1cc(N2CC[C@]3(CCc4cc(C(=O)NO)ccc4C3)C2=O)cn1 [Compound I-168, (R)-N-hydroxy-1′-(1-methyl-1H-pyrazol-4-yl)-2′-oxo-3,4-dihydro-1H-spiro[naphthalene-2,3′-pyrrolidine]-6-carboxamide]
11 | ≤ 100 | O=C(NO)c1ccc2c(c1)CC[C@@]1(CCN(c3cc(F)ccc3F)C1=O)C2 [Compound I-169, (S)-1′-(2,5-difluorophenyl)-N-hydroxy-2′-oxo-3,4-dihydro-1H-spiro[naphthalene-2,3′-pyrrolidine]-6-carboxamide]
12 | ≤ 100 | Cn1cc(N2CC[C@@]3(CCc4cc(C(=O)NO)ccc4C3)C2=O)cn1 [Compound I-170, (S)-N-hydroxy-1′-(1-methyl-1H-pyrazol-4-yl)-2′-oxo-3,4-dihydro-1H-spiro[naphthalene-2,3-pyrrolidine]-6-carboxamide]
13 | ≤ 100 | N#Cc1ccc(N2CC[C@@]3(CCc4cc(C(=O)NO)ccc4C3)C2=O)cc1 [Compound I-173, (S)-1′-(4-cyanophenyl)-N-hydroxy-2′-oxo-3,4-dihydro-1H-spiro[naphthalene-2,3′-pyrrolidine]-6-carboxamide]
14 | ≤ 100 | N#Cc1ccccc1N1CC[C@@]2(CCc3cc(C(=O)NO)ccc3C2)C1=O [Compound I-174, (S)-1′-(2-cyanophenyl)-N-hydroxy-2′-oxo-3,4-dihydro-1H-spiro[naphthalene-2,3′-pyrrolidine]-6-carboxamide]
